Experiments:
Format in all cases: biochemical
[1] = tested on: Liver acetone powder from Dog; assay: Hydrolysis of ketoprofen esters by dog liver acetone powder
Experimental: (§1) A solution of 50 mg of ketoprofen methyl ester in 0.2 ml of ethanol was added to 10 mg of each of liver acetone powder from various animal sources (described in Table 1) in 5 ml of 0.1M potassium phosphate buffer (pH 7.0) After shaking at room temperature for 24 hours, the reaction mixtures were acidified to pH 2.0 with 6(N) HCl and extracted with 10 ml of ethyl acetate. A portion of the ethyl acetate extract was analyzed by HPLC on a Partisil 5 ODS-3 RAC column (9.4 mm×100 mm, Whatman) using a mixture of methanol and 10 mM ammonium dihydrogen phospate (9:1) and monitored by UV at 254 nm to determine the percentages of acid produced in the reaction.
(§2) To determine the percentage of R- and S-acid, a portion of the ethyl acetate extract was converted to the amide derivative of the acid produced with R(+)-1-phenylethylamine as follows. The ethyl acetate extract (5 ml) was dried over sodium sulfate, filtered and cooled to 0° C. To the cold solution was added 0.2 ml of N-methylmorpholine followed by 0.2 ml of isobutyl chloroformate. After gentle shaking at 0° C. for 10 minutes, 0.2 ml of R(+)-1-phenylethylamine was added and the shaking was continued at 0° C. for 5 minutes and at room temperature for another 5 minutes. The reaction mixture was washed successively with water (5 ml), 1(N) HCl (5 ml), and water (5 ml) to provide the amide derivative in ethyl acetate solution. The ethyl acetate solution of the amide derivative was then analyzed by HPLC on the same column and same solvent mixture but with a different composition, i.e., a ratio of 6:4, and monitored by UV to determine the percentages of R- acid and S-acids produced by hydrolysis. The enantiomeric excess (EE) is defined as the difference in percent between the percent R- acid and the percent S-acid, the higher enantiomer being reported in the parenthesis in Table I.
(§3) Several esters of ketoprofen (0.2 millimole) with various alkyl groups of varying chain length were hydrolyzed using liver acetone powders from bovine, calf and dog by the procedure described in Example 1. The reaction mixtures were analyzed by the same procedures as described in Example 1 and the results obtained are summarized in Table II.

[2] = tested on: Liver acetone powder from Calf; assay: Hydrolysis of ketoprofen esters by calf liver acetone powder
Experimental: as §1, §2, §3

[3] = tested on: Liver acetone powder from Bovine; assay: Hydrolysis of ketoprofen esters by bovine liver acetone powder
Experimental: as §1, §2, §3

[4] = tested on: Liver acetone powder from Pigeon; assay: Hydrolysis of ketoprofen methyl ester by pigeon liver acetone powder
Experimental: as §1, §2

[5] = tested on: Liver acetone powder from Cat; assay: Hydrolysis of ketoprofen methyl ester by cat liver acetone powder
Experimental: as §1, §2

[6] = tested on: Liver acetone powder from Horse; assay: Hydrolysis of ketoprofen methyl ester by horse liver acetone powder
Experimental: as §1, §2

[7] = tested on: Liver acetone powder from Goat; assay: Hydrolysis of ketoprofen methyl ester by goat liver acetone powder
Experimental: as §1, §2

[8] = tested on: Liver acetone powder from Rabbit; assay: Hydrolysis of ketoprofen methyl ester by rabbit liver acetone powder
Experimental: as §1, §2

[9] = tested on: Liver acetone powder from Sheep; assay: Hydrolysis of ketoprofen methyl ester by sheep liver acetone powder
Experimental: as §1, §2

[10] = tested on: Liver acetone powder from Chicken; assay: Hydrolysis of ketoprofen methyl ester by chicken liver acetone powder
Experimental: as §1, §2

[11] = tested on: Liver acetone powder from Rat; assay: Hydrolysis of ketoprofen methyl ester by rat liver acetone powder
Experimental: as §1, §2

[12] = tested on: Liver acetone powder from Seal; assay: Hydrolysis of ketoprofen methyl ester by seal liver acetone powder
Experimental: as §1, §2

[13] = tested on: Liver acetone powder from Mouse; assay: Hydrolysis of ketoprofen methyl ester by mouse liver acetone powder
Experimental: as §1, §2

[14] = tested on: Liver acetone powder from Lungfish; assay: Hydrolysis of ketoprofen methyl ester by lungfish liver acetone powder; settings: Lungfish powder 10 mg, 50 mg ester, pH 7.0, room temperature, 24 hours
Experimental: as §1

[15] = tested on: Liver acetone powder from Eel*; assay: Hydrolysis of ketoprofen methyl ester by eel (Anguilla anguilla) liver acetone powder; settings: Eel (Anguilla anguilla) powder 10 mg, 50 mg ester, pH 7.0, room temperature, 24 hours
Experimental: as §1

[16] = tested on: Liver acetone powder from Eel**; assay: Hydrolysis of ketoprofen methyl ester by eel (Electrophorous electricus) liver acetone powder; settings: Eel (Electrophorous electricus) powder 10 mg, 50 mg ester, pH 7.0, room temperature, 24 hours
Experimental: as §1

[17] = tested on: Liver acetone powder from Porcine; assay: Hydrolysis of ketoprofen methyl ester by porcine liver acetone powder; settings: Porcine powder 10 mg, 50 mg ester, pH 7.0, room temperature, 24 hours
Experimental: as §1

[18] = tested on: Liver acetone powder from Guinea Pig; assay: Hydrolysis of ketoprofen methyl ester by guinea pig liver acetone powder; settings: Guinea Pig powder 10 mg, 50 mg ester, pH 7.0, room temperature, 24 hours
Experimental: as §1

[19] = tested on: Liver acetone powder from Trout; assay: Hydrolysis of ketoprofen methyl ester by trout liver acetone powder; settings: Trout powder 10 mg, 50 mg ester, pH 7.0, room temperature, 24 hours
Experimental: as §1

[20] = tested on: Liver acetone powder from Lemon Shark; assay: Hydrolysis of ketoprofen methyl ester by lemon shark liver acetone powder; settings: Lemon Shark powder 10 mg, 50 mg ester, pH 7.0, room temperature, 24 hours
Experimental: as §1

[21] = tested on: Liver acetone powder from Salmon; assay: Hydrolysis of ketoprofen methyl ester by salmon liver acetone powder; settings: Salmon powder 10 mg, 50 mg ester, pH 7.0, room temperature, 24 hours
Experimental: as §1

[22] = tested on: Liver acetone powder from Turtle; assay: Hydrolysis of ketoprofen methyl ester by turtle liver acetone powder; settings: Turtle powder 10 mg, 50 mg ester, pH 7.0, room temperature, 24 hours
Experimental: as §1

[23] = Dog powder, 0.2 millimole ester, procedure of Example 1
[24] = Calf powder, 0.2 millimole ester, procedure of Example 1
[25] = Bovine powder, 0.2 millimole ester, procedure of Example 1
[26] = Dog powder 10 mg, 50 mg ester, pH 7.0, room temperature, 24 hours
[27] = Calf powder 10 mg, 50 mg ester, pH 7.0, room temperature, 24 hours
[28] = Bovine powder 10 mg, 50 mg ester, pH 7.0, room temperature, 24 hours
[29] = Pigeon powder 10 mg, 50 mg ester, pH 7.0, room temperature, 24 hours
[30] = Cat powder 10 mg, 50 mg ester, pH 7.0, room temperature, 24 hours
[31] = Horse powder 10 mg, 50 mg ester, pH 7.0, room temperature, 24 hours
[32] = Goat powder 10 mg, 50 mg ester, pH 7.0, room temperature, 24 hours
[33] = Rabbit powder 10 mg, 50 mg ester, pH 7.0, room temperature, 24 hours
[34] = Sheep powder 10 mg, 50 mg ester, pH 7.0, room temperature, 24 hours
[35] = Chicken powder 10 mg, 50 mg ester, pH 7.0, room temperature, 24 hours
[36] = Rat powder 10 mg, 50 mg ester, pH 7.0, room temperature, 24 hours
[37] = Seal powder 10 mg, 50 mg ester, pH 7.0, room temperature, 24 hours
[38] = Mouse powder 10 mg, 50 mg ester, pH 7.0, room temperature, 24 hours

## CCCCCCOC(=O)C(C)c1cccc(C(=O)c2ccccc2)c1 (stereo not shown) [C-6]
[1]; [23]
  EE(%) of R-Acid: 35.8%
  Percent of Acid R-Acid: 67.9%
  Percent of Acid S-Acid: 32.1%
[2]; [24]
  EE(%) of R-Acid: 42.0%
  Percent of Acid R-Acid: 71.0%
  Percent of Acid S-Acid: 29.0%
[3]; [25]
  EE(%) of R-Acid: 45.4%
  Percent of Acid R-Acid: 72.7%
  Percent of Acid S-Acid: 27.3%

## CCCCCCCCOC(=O)C(C)c1cccc(C(=O)c2ccccc2)c1 (stereo not shown) [C-8]
[1]; [23]
  EE(%) of R-Acid: 41.4%
  Percent of Acid R-Acid: 70.7%
  Percent of Acid S-Acid: 29.3%
[2]; [24]
  EE(%) of R-Acid: 24.2%
  Percent of Acid R-Acid: 62.1%
  Percent of Acid S-Acid: 37.9%
[3]; [25]
  EE(%) of R-Acid: 55.8%
  Percent of Acid R-Acid: 77.9%
  Percent of Acid S-Acid: 22.1%

## COC(=O)C(C)c1cccc(C(=O)c2ccccc2)c1 (stereo not shown) [Methyl Ester of Ketoprofen, ketoprofen methyl ester]
[1]; [26]
  Percentage of Acid R-acid: 87.1%
  Percentage of Acid S-acid: 12.9%
  Percentage of acid: 8.0%
[1]; [23]
  Acid Produced (%): 6.2%
  EE(%) of R-Acid: 76.6%
  Percent of Acid R-Acid: 88.3%
  Percent of Acid S-Acid: 11.7%
[1]; Dog powder, Table 1, higher enantiomer (R)
  Percentage EE of acid (R or S): 74.2%
[2]; [27]
  Percentage of Acid R-acid: 71.6%
  Percentage of Acid S-acid: 28.4%
  Percentage of acid: 5.7%
[2]; [24]
  Acid Produced (%): 7.3%
  EE(%) of R-Acid: 45.6%
  Percent of Acid R-Acid: 72.8%
  Percent of Acid S-Acid: 27.2%
[2]; Calf powder, Table 1, higher enantiomer (R)
  Percentage EE of acid (R or S): 43.2%
[3]; [28]
  Percentage of Acid R-acid: 71.2%
  Percentage of Acid S-acid: 28.8%
  Percentage of acid: 4.3%
[3]; [25]
  Acid Produced (%): 4.4%
  EE(%) of R-Acid: 47.2%
  Percent of Acid R-Acid: 73.6%
  Percent of Acid S-Acid: 26.4%
[3]; Bovine powder, Table 1, higher enantiomer (R)
  Percentage EE of acid (R or S): 42.4%
[4]; [29]
  Percentage of Acid R-acid: 66.7%
  Percentage of Acid S-acid: 33.3%
  Percentage of acid: 18.0%
[4]; Pigeon powder, Table 1, higher enantiomer (R)
  Percentage EE of acid (R or S): 33.4%
[5]; [30]
  Percentage of Acid R-acid: 64.1%
  Percentage of Acid S-acid: 35.9%
  Percentage of acid: 7.2%
[5]; Cat powder, Table 1, higher enantiomer (R)
  Percentage EE of acid (R or S): 28.2%
[6]; [31]
  Percentage of Acid R-acid: 62.7%
  Percentage of Acid S-acid: 37.3%
  Percentage of acid: 24.1%
[6]; Horse powder, Table 1, higher enantiomer (R)
  Percentage EE of acid (R or S): 25.4%
[7]; [32]
  Percentage of Acid R-acid: 42.3%
  Percentage of Acid S-acid: 57.7%
  Percentage of acid: 15.5%
[7]; Goat powder, Table 1, higher enantiomer (S)
  Percentage EE of acid (R or S): 15.4%
[8]; [33]
  Percentage of Acid R-acid: 46.1%
  Percentage of Acid S-acid: 53.9%
  Percentage of acid: 54.9%
[8]; Rabbit powder, Table 1, higher enantiomer (S)
  Percentage EE of acid (R or S): 7.8%
[9]; [34]
  Percentage of Acid R-acid: 46.5%
  Percentage of Acid S-acid: 53.5%
  Percentage of acid: 18.1%
[9]; Sheep powder, Table 1, higher enantiomer (S)
  Percentage EE of acid (R or S): 7.0%
[10]; [35]
  Percentage of Acid R-acid: 52.7%
  Percentage of Acid S-acid: 47.3%
  Percentage of acid: 8.1%
[10]; Chicken powder, Table 1, higher enantiomer (R)
  Percentage EE of acid (R or S): 5.4%
[11]; [36]
  Percentage of Acid R-acid: 52.7%
  Percentage of Acid S-acid: 47.3%
  Percentage of acid: 7.5%
[11]; Rat powder, Table 1, higher enantiomer (R)
  Percentage EE of acid (R or S): 5.4%
[12]; [37]
  Percentage of Acid R-acid: 48.9%
  Percentage of Acid S-acid: 51.1%
  Percentage of acid: 14.3%
[12]; Seal powder, Table 1, higher enantiomer (S)
  Percentage EE of acid (R or S): 2.2%
[13]; [38]
  Percentage of Acid R-acid: 49.0%
  Percentage of Acid S-acid: 51.0%
  Percentage of acid: 9.4%
[13]; Mouse powder, Table 1, higher enantiomer (R)
  Percentage EE of acid (R or S): 2.0%
[14]
  Percentage of acid: 3.2%
[15]
  Percentage of acid: 3.0%
[16]
  Percentage of acid: 1.1%
[17]
  Percentage of acid: 0.9%
[18]
  Percentage of acid: 0.8%
[19]
  Percentage of acid: 0.7%
[20]
  Percentage of acid: 0.6%
[21]
  Percentage of acid: 0.6%
[22]
  Percentage of acid: 0.6%

Source: patent US5175100A, “Stereospecific resolution by hydrolysis of esters of 2-arylpropionic acids by liver enzymes” (Rhone-Poulenc, Inc., priority 1991, dated 1992)
